The text below walks through data of patent publication US20250057807A1, “TREATING A DISEASE USING A […] ACTIVE INGREDIENT PRESENT IN A PSEUDO-TERNARY PHASE SYSTEM” (Hepion Pharmaceuticals, Inc., priority 2018, published 2025).

What is called solubility is how much of the substance goes into solution per volume. Broadly, the fraction unbound is the share of the substance not bound to proteins or other matrix. By half-life is commonly meant how long it takes for the measured level to halve. A low value points to fast loss. The Cmax is the peak of the concentration-time curve. By Kp is commonly meant tissue or fluid exposure divided by exposure in the circulation.

Where “and” joins values, the source holds several entries; their conditions need not be identical. Equal entries are not always repeated. Where a SMILES comes first, the peptide text is derived from it. [ ]: non-standard residue; d: D form. NMeThr(4R-Me,4-(CH2)6NHAc) = CN[C@H](C(=O)O)[C@H](O)[C@H](C)CCCCCCNC(C)=O; NMeL = CN[C@@H](CC(C)C)C(=O)O; NMeV = CN[C@H](C(=O)O)C(C)C; dNMeA = CN[C@H](C)C(=O)O; Abu = CC[C@H](N)C(=O)O

A short description of data set [1]: physchem. As to conditions: pH 7.4, aqueous buffer, kinetic from dmso stock. The method, then: (§1) The supernatant was collected, diluted 1:1 with methanol, and drug concentrations measured by HPLC (Agilent 1100 series, UV detection) relative to standard curves. The polar surface area and log P were calculated using Molinspiration Cheminformatics (V2018.10, USA). Plasma protein binding was determined by equilibrium dialysis assays. Drug plasma samples were prepared to achieve a final concentration of 5 μM in human blood plasma by 500-fold dilution of 2.5 mM DMSO-drug stocks. Plasma solutions (300 μl) and PBS, pH 7.4 (500 μl), were added to adjacent chambers of Rapid Equilibrium Dialysis units (Thermo Scientific; 8K MWCO). Plates were sealed with plastic film and shaken on an orbital shaker at 225 rpm at 37° C. for 4.5 hr. Plasma and PBS samples were collected, and drugs extracted with a zinc sulfate/methanol precipitation method. After centrifugation at 3,300 rpm for 10 min, soluble drugs in methanol supernatants were analyzed by Liquid Chromatography (LC) Electrospray Ionization (ESI) Mass Spectrometry (LC-ESI-MS) (Agilent 1100 series, Santa Clara, USA) and quantified relative to standard curves.

Data set [2] can be described thus: in vitro. The note with it: human, pH 7.4. On the procedure:
as §1

Data set [3] can be described thus: clinical. On the set-up: species or system human. As to conditions: in vivo. On the procedure: The study was conducted at a clinical research facility for investigational medicines (Celerion, Arizona, USA) as part of a clinical Phase 1 single-ascending-dose (SAD) study and followed all FDA ethical guidelines. Patients were selected according to standardized inclusion/exclusion criteria for a Phase I SAD study. Healthy volunteers 18-55 years of age with no evidence of ongoing disease (as determined by the study investigator), or any use of nicotine (30 days prior to screening), or drugs of abuse (within the preceding 2 years), or use of chronic prescription medication (within 30 days), or acute prescription medication (within 14 days), or systemic over-the-counter medications including vitamins and herbal/natural supplements (within 7 days prior to the study dose) were enrolled in the study. The SMEDDS was dispensed (approximately 3 ml) into a 100 ml Gibco clear bottle and a 15-fold excess of filtered water (HPLC grade) was added. The mixture was swirled gently for 1-2 minutes until fully dispersed. The SMEDDS in-water dose was placed in the refrigerator and orally administered within 2 hours. […] Samples were immediately frozen and analyzed by LC-ESI-MS within 5 days. Briefly, whole blood samples were thawed and extracted using a zinc sulfate/methanol precipitation method.

Data set [4] in a line: in vivo. Also on record: species or system Sprague Dawley rats. The note with it: Sprague Dawley, rat, po, 30 mg/kg/day, liver level relative to whole blood. On the procedure:
SERIES 1 1/3/3/2/9 (Vitamin E/Maisine® CC/Propylene Glycol/Ethanol/Cremophor® RH40 (w/w/w/w/w)) CRV431 SMEDDS (50 mg/ml) was administered to Sprague Dawley rats (n=6) by oral gavage at 30 mg/kg/day for 7 days. At 12 hours post-dose on day 7, the animals were sacrificed and whole blood and livers were extracted and frozen. CRV431 was quantitated in whole blood using LC-ESI-MS (as for the human pharmacokinetic studies). For quantitation of CRV431 in liver, one gram samples of liver tissue were added to 9 ml of homogenizing solution (1% formic acid in water) and homogenized using a TissueLyser (Qiagen) at 30 Hz for 10 minutes. Aliquots were removed and analyzed by LC-ESI-MS as described above.

Regarding `CC[C@@H]1NC(=O)[C@H]([C@H](O)[C@H](C)CCCCCCNC(C)=O)N(C)C(=O)[C@H](C(C)C)N(C)C(=O)[C@H](CC(C)C)N(C)C(=O)[C@H](CC(C)C)N(C)C(=O)[C@@H](C)NC(=O)[C@H](C)NC(=O)[C@H](CC(C)C)N(C)C(=O)[C@H](C(C)C)NC(=O)[C@H](CC(C)C)N(C)C(=O)[C@@H](C)N(C)C1=O` [CRV431] (cyclo(A[dA][NMeL][NMeL][NMeV][NMeThr(4R-Me,4-(CH2)6NHAc)][Abu][dNMeA][NMeL]V[NMeL])), in data set [1], the solubility is 115 µg/mL and 115 µM. The compound also registered a fraction unbound at 4.5 hr, 5 μM in data set [2] of 0.076. For the same compound, in data set [3] (human), the half-life was ~100 h. Further, the Cmax in data set [3] (human, po, 1 mg/kg) is 334 ± 106 ng/mL. Moreover, in data set [3] (2.5 mg/kg), the “Cmax relative to Neoral®” value is “slightly greater than Neoral®” and the “overall exposure (AUC) relative to Neoral®” value is on record as “approximately 14 times”. For the same compound, the Kp in data set [4] worked out at 6.5.
